Patent US12371464B2, “Polypeptides and uses thereof” (MEDIMMUNE LIMITED, priority 2020, dated 2025)
Numbered stars: 1 amine (or outer) side, 2 acyl side, 3 side chain; on linkers, the order of the positions; unused ones are H or OH. Bridge positions count the residues as written; N and C are the ends. Square brackets hold non-standard residues; d marks the D form. Side chains are listed from the residue outwards. Peptide text beside a SMILES is read from it. * marks the point of attachment. C18 diacid = O=C(O)CCCCCCCCCCCCCCCCC(=O)*; γGlu = O=C(O)[C@H](CCC(=O)[*:2])N[*:1]; αMeF = C[C@](N)(Cc1ccccc1)C(=O)O

Columns and labels:
[1] = Thioflavin T fibrillation assay; format: physicochemical; conditions: 1 mg/mL in 25 mM sodium acetate buffer pH 4.0, 37° C., 6 days, orbital shaking; >144 h = no increase
Summary of the method: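 Peptides at 1 mg/mL in 25 mM sodium acetate pH 4.0 were mixed with ThT (0.25 mM stock) and held 6 days at 37 °C with intermittent orbital shaking at 500–750 rpm. Fluorescence (ex 444/em 480 nm) was read every 30 min, with buffer baseline correction and 5 replicates. Value: mean time to a detectable fluorescence increase.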

lean rats = assay: Rat acute food intake study; format: in vivo, Sprague Dawley rats; conditions: 20 nmol/kg subcutaneously
Protocol: Male Sprague Dawley rats were obtained from Taconic Denmark, ApS at approximately 7 weeks of age. . . . Rats were implanted with a microchip for identification, housed 4/cage with enrichment, free access to food and water, and allowed one week acclimatisation while non-invasive characterization was performed. Rats were on a 12:12 light:dark cycle that switches at 1 pm:1 am. Food intake was monitored via the HM2 system (Lafayette Instrument) that allows for monitoring in a home cage. As each rat enters an access tunnel to feed, an IR beam is broken, and the implanted microchip is read. Resulting changes to food weight is then assigned to the specific animal. Social order has shown no impact to overall feeding patterns and amounts.
Rats were sorted into groups based on Day-1 body weight and 24-hour accumulated food intake (n=7 per group). On Day 0 rats were weighed, then fasted for 6 hours. Thirty (30) minutes prior to the reintroduction of food, rats were dosed subcutaneously (5 ml/kg) with 20 nmol/kg of test compound or 60 nmol/kg peptide 1 (pramlintide) diluted in an appropriate vehicle, after which food was returned, and lights went out. Automated food intake was monitored for the following 3 days, and rats were weighed once per day.
Food intake per rat was batched into 1-hour intervals and integrated into Gubra's GubraView data management system. Discrete food intake data was exported into MS Excel from which cumulative food intake data was generated. Cumulative food intake data was then transposed into GraphPad Prism (v8.0.1) for analysis of dark period feeding

Structure (SMILES)	Time taken to detect increase in fluorescence intensity [1] [h]	Cummulative food intake (% vehicle treated intake) At 12 h (lean rats; at 12 h) [% vehicle treated intake]	Cummulative food intake (% vehicle treated intake) At 24 h (lean rats; at 24 h) [% vehicle treated intake]	Cummulative food intake (% vehicle treated intake) At 48 h (lean rats; at 48 h) [% vehicle treated intake]
CC[C@H](C)[C@H](NC(=O)[C@@H]1CCCN1C(=O)CNC(=O)[C@](C)(Cc1ccccc1)NC(=O)[C@H](CC(N)=O)NC(=O)[C@H](CC(N)=O)NC(=O)[C@H](CO)NC(=O)[C@H](CO)NC(=O)[C@H](Cc1c[nH]cn1)NC(=O)[C@H](CCCNC(=N)N)NC(=O)[C@H](CC(C)C)NC(=O)[C@H](Cc1ccccc1)NC(=O)[C@H](CCC(=O)O)NC(=O)[C@H](C)NC(=O)[C@H](CC(C)C)NC(=O)[C@H](CCCNC(=N)N)NC(=O)[C@H](CCC(N)=O)NC(=O)[C@@H](NC(=O)[C@H](C)NC(=O)[C@@H]1CSSC[C@H](NC(=O)[C@H](CCCCN)NC(=O)[C@@H](N)CCCCNC(=O)CC[C@H](NC(=O)CCCCCCCCCCCCCCCCC(=O)O)C(=O)O)C(=O)N[C@@H](CC(N)=O)C(=O)N[C@@H]([C@@H](C)O)C(=O)N[C@@H](C)C(=O)N[C@@H]([C@@H](C)O)C(=O)N1)[C@@H](C)O)C(=O)N[C@@H](CC(C)C)C(=O)N1CCC[C@H]1C(=O)N1CCC[C@H]1C(=O)N[C@H](C(=O)N[C@@H](CC(N)=O)C(=O)N[C@H](C(=O)NCC(=O)N[C@@H](CO)C(=O)N[C@@H](CC(N)=O)C(=O)N[C@H](C(=O)N[C@@H](Cc1ccc(O)cc1)C(N)=O)[C@@H](C)O)C(C)C)[C@@H](C)O [Peptide 12, K(γE-C18diacid)K[CNTATC]ATQRLAEFLRHSSNN(αMePhe)GPILPPTNVGSNTY-amide] (H-K([γGlu-C18 diacid])KCNTATCATQRLAEFLRHSSNN[αMeF]GPILPPTNVGSNTY-NH2; disulfide 3-8; N-terminus assumed)	>144	9.4	7.5	–
CC[C@H](C)[C@H](NC(=O)[C@@H]1CCCN1C(=O)CNC(=O)[C@](C)(Cc1ccccc1)NC(=O)[C@H](CC(N)=O)NC(=O)[C@H](CC(N)=O)NC(=O)[C@H](CO)NC(=O)[C@H](CO)NC(=O)[C@H](Cc1c[nH]cn1)NC(=O)[C@H](CCCNC(=N)N)NC(=O)[C@H](CC(C)C)NC(=O)[C@H](Cc1ccccc1)NC(=O)[C@H](CC(N)=O)NC(=O)[C@H](C)NC(=O)[C@H](CC(C)C)NC(=O)[C@H](CCCNC(=N)N)NC(=O)[C@H](CCC(N)=O)NC(=O)[C@@H](NC(=O)[C@H](C)NC(=O)[C@@H]1CSSC[C@H](NC(=O)[C@H](CCCCN)NC(=O)[C@@H](N)CCCCNC(=O)CC[C@H](NC(=O)CCCCCCCCCCCCCCCCC(=O)O)C(=O)O)C(=O)N[C@@H](CC(N)=O)C(=O)N[C@@H]([C@@H](C)O)C(=O)N[C@@H](C)C(=O)N[C@@H]([C@@H](C)O)C(=O)N1)[C@@H](C)O)C(=O)N[C@@H](CC(C)C)C(=O)N1CCC[C@H]1C(=O)N1CCC[C@H]1C(=O)N[C@H](C(=O)N[C@@H](CCC(=O)O)C(=O)N[C@H](C(=O)NCC(=O)N[C@@H](CO)C(=O)N[C@@H](CC(N)=O)C(=O)N[C@H](C(=O)N[C@@H](Cc1ccc(O)cc1)C(N)=O)[C@@H](C)O)C(C)C)[C@@H](C)O [Peptide 15, K(γE-C18diacid)K[CNTATC]ATQRLANFLRHSSNN(αMePhe)GPILPPTEVGSNTY-amide] (H-K([γGlu-C18 diacid])KCNTATCATQRLANFLRHSSNN[αMeF]GPILPPTEVGSNTY-NH2; disulfide 3-8; N-terminus assumed)	>144	–	–	51
